Key:
[1] = tested on: HDAC; experiment: HDAC fluorimetric assay kit (AK-500, Biomol), HeLa nuclear extract; type: biochemical; settings: Fluor de Lys substrate
Description: HDAC inhibitors were screened using an HDAC fluorimetric assay kit (AK-500, Biomol, Plymouth Meeting, Pa.). […] Each assay was setup as follows: Defrosted all kit components and kept on ice until use. Diluted HeLa nuclear extract 1:29 in Assay Buffer (50 mM Tris/Cl, pH 8.0, 137 mM NaCl, 2.7 mM KCl, 1 mM MgCl2). Prepared dilutions of Trichostatin A (TSA, positive control) and tested compounds in assay buffer (5× of final concentration). Diluted Fluor de Lys™ Substrate in assay buffer to 100 uM (50 fold=2× final). Diluted Fluor de Lys™ developer concentrate 20-fold (e.g. 50 μl plus 950 μl Assay Buffer) in cold assay buffer. Second, diluted the 0.2 mM Trichostatin A 100-fold in the 1× Developer (e.g. 10 μl in 1 ml; final Trichostatin A concentration in the 1× Developer=2 μM; final concentration after addition to HDAC/Substrate reaction=1 μM). Added Assay buffer, diluted trichostatin A or test inhibitor to appropriate wells of the microtiter plate. Added diluted HeLa extract or other HDAC sample to all wells except for negative controls. Allowed diluted Fluor de Lys™ Substrate and the samples in the microtiter plate to equilibrate to assay temperature (e.g. 25 or 37° C. Initiated HDAC reactions by adding diluted substrate (25 μl) to each well and mixing thoroughly. Allowed HDAC reactions to proceed for 1 hour and then stopped them by addition of Fluor de Lys™ Developer ([…]). Incubated plate at room temperature (25° C.) for 10-15 min. Read samples in a microtiter-plate reading fluorimeter capable of excitation at a wavelength in the range 350-380 nm and detection of emitted light in the range 440-460 nm.
(§1) The following TABLE B lists compounds representative of the invention and their activity in HDAC, VEGFR2 and PDGFR assays.

[2] = molecular target: T1, PDGFR-beta (Homo sapiens, UniProt P09619); experiment: HTScan Receptor Kinase Assay, PDGFR-beta tyrosine kinase; type: biochemical; settings: human PDGFR-beta kinase fragment, 200 μM ATP
T1 construct: GST (N); HIS6 (N); Thrombin cleavage site (N); purchased Cell Signaling Technologies; host or cells: baculovirus expression system
T1 sequence (P09619 561-1106): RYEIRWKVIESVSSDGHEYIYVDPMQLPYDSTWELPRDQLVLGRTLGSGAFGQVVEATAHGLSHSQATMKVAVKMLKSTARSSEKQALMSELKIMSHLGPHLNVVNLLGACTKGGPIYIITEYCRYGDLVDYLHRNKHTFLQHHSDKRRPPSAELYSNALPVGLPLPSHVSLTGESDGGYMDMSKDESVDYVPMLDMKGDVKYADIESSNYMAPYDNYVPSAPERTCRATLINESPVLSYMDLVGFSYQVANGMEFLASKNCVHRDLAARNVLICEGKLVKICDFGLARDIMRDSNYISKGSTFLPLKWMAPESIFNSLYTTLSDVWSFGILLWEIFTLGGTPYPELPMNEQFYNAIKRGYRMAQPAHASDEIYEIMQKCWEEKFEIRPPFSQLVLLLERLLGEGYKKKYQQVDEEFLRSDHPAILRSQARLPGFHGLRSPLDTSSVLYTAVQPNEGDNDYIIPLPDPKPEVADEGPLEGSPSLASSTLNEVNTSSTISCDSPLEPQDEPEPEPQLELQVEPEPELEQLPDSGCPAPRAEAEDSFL
Description: (§2) Immediately transfer enzyme from −80° C. to ice. Allowed enzyme to thaw on ice. […] Returned immediately to ice. […] Incubated reaction plate at room temperature for 30 minutes. […] Added 100 μl/well primary antibody. Incubated at room temperature for 60 minutes. […] Added 100 μl/well diluted antibody. Incubated at room temperature for 30 minutes. […] Incubated at room temperature for 5 minutes.
as §1

[3] = molecular target: T2, VEGFR2 (Homo sapiens, UniProt P35968); experiment: HTScan Receptor Kinase Assay, VEGFR2 tyrosine kinase; type: biochemical; settings: human VEGFR2 kinase domain, 200 μM ATP
T2 construct: GST (N); HIS6 (N); Thrombin cleavage site (N); purchased Cell Signaling Technologies; host or cells: baculovirus expression system
T2 sequence (P35968 807-1356 limits assumed): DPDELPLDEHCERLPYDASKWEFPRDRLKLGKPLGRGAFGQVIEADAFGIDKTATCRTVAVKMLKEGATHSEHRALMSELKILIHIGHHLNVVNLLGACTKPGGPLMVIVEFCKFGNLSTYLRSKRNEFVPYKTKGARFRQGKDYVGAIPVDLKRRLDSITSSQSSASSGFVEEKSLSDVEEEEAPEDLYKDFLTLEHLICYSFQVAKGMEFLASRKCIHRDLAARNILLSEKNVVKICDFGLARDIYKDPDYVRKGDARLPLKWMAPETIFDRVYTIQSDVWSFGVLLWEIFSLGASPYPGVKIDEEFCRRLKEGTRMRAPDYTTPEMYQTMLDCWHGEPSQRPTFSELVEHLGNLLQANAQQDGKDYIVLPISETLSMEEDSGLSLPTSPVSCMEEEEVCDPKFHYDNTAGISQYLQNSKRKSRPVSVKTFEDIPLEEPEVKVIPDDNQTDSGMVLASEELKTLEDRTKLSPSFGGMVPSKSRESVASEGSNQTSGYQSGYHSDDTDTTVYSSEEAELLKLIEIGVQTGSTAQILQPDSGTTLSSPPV
Description: as §2, §1

Compound	IC50 [1]	IC50 [2]	IC50 [3]	melting point
Cc1[nH]c(/C=C2\C(=O)Nc3ccc(F)cc32)c(C)c1C(=O)NCCCCCC(=O)NO [Compound 4, N-(5-(hydroxycarbamoyl)pentyl)-5-((Z)-(5-fluoro-2-oxoindolin-3-ylidene)methyl)-2,4-dimethyl-1H-pyrrole-3-carboxamide]	100 to 1000 nM	< 100 nM	< 100 nM	209.7 °C (dec.)
Cc1[nH]c(/C=C2\C(=O)Nc3ccc(F)cc32)c(C)c1C(=O)NCCOc1ccc(C(=O)NO)cc1 [Compound 8, (Z)-5-((5-fluoro-2-oxoindolin-3-ylidene)methyl)-N-(2-(4-(hydroxycarbamoyl)phenoxy)ethyl)-2,4-dimethyl-1H-pyrrole-3-carboxamide]	100 to 1000 nM			
Cc1[nH]c(/C=C2\C(=O)Nc3ccc(F)cc32)c(C)c1C(=O)NCCCCCCC(=O)NO [Compound 15, (Z)-5-((5-Fluoro-2-oxoindolin-3-ylidene)methyl)-N-(7-(hydroxyamino)-7-oxoheptyl)-2,4-dimethyl-1H-pyrrole-3-carboxamide]	< 100 nM	100 to 1000 nM	< 100 nM	221 °C (dec.)
Cc1[nH]c(/C=C2\C(=O)Nc3ccc(F)cc32)c(C)c1C(=O)NCCCCCCCC(=O)NO [Compound 16, (Z)-5-((5-Fluoro-2-oxoindolin-3-ylidene)methyl)-N-(8-(hydroxyamino)-8-oxooctyl)-2,4-dimethyl-1H-pyrrole-3-carboxamide]	< 100 nM	100 to 1000 nM	< 100 nM	213.7 °C (dec.)

More lines, now with the values ahead:

IC50 [1]	IC50 [2]	IC50 [3]	melting point	Compound
100 to 1000 nM	100 to 1000 nM	< 100 nM		Cc1[nH]c(/C=C2\C(=O)Nc3ccc(F)cc32)c(C)c1C(=O)NCCC(=O)NO [Compound 2, N-(2-(hydroxycarbamoyl)ethyl)-5-((Z)-(5-fluoro-2-oxoindolin-3-ylidene)methyl)-2,4-dimethyl-1H-pyrrole-3-carboxamide]
1000 to 10000 nM	< 100 nM	< 100 nM		Cc1[nH]c(/C=C2\C(=O)Nc3ccc(F)cc32)c(C)c1C(=O)NCCCC(=O)NO [Compound 3, N-(3-(hydroxycarbamoyl)propyl)-5-((Z)-(5-fluoro-2-oxoindolin-3-ylidene)methyl)-2,4-dimethyl-1H-pyrrole-3-carboxamide]
> 10000 nM		< 100 nM		Cc1[nH]c(/C=C2\C(=O)Nc3ccc(F)cc32)c(C)c1C(=O)NCCCCCC(=O)N(C)O [Compound 9, (Z)-5-((5-fluoro-2-oxoindolin-3-ylidene)methyl)-N-(6-(hydroxy(methyl)amino)-6-oxohexyl)-2,4-dimethyl-1H-pyrrole-3-carboxamide]
100 to 1000 nM		< 100 nM		Cc1[nH]c(/C=C2\C(=O)Nc3ccc(F)cc32)c(C)c1C(=O)NCCOc1ccc(/C=C/C(=O)NO)cc1 [Compound 14, 5-((Z)-(5-fluoro-2-oxoindolin-3-ylidene)methyl)-N-(2-(4-((E)-3-(hydroxyamino)-3-oxoprop-1-enyl)phenoxy)ethyl)-2,4-dimethyl-1H-pyrrole-3-carboxamide]
